This is an account of results in US10583111B2, “Method for preventing or treating diseases associated with the inhibition of EGFR” (priority 2017, dated 2020).

The subject of test [1] is intracellular NO level in HaCaT. The test can be described thus: Effect of the EGFR inhibitor on the intracellular NO levels, HaCaT. The test is classed as cell-based. Conditions: 20 μM, 12-24 hrs, cell lysate. The protocol:
(§1) The cultured HaCaT, HUVEC and hMSC were respectively digested, counted, and seeded into 6-well plates with 100,000-600,000 cells per well. After the cells were attached, the supernatant was discarded, and 1.5 mL of the EGFR inhibitor solution diluted to the final concentration as shown in Table 7 was added into the wells of the 6-well plates, wherein no additional solution was added to the blank control group, except the normal replacement of basic medium. After 12-24 hrs of addition of the EGFR inhibitor, the supernatant was discarded, while 100 μL of a cell lysis solution was added to the cells in the 6-well plates (specifically for the detection of nitric oxide, 53090, Beyotime Inc.). After 30 s of lysis, 50 μL cell lysis solution was taken. The NO level in the cell lysis solution was detected by using NO assay kit (S0021, Beyotime Inc.). GraphPad Prism 6.0 Software and t-test were used to carry out a statistic analysis of the results and plot a graph.

Test [2] deals with intracellular NO level in HUVEC. The test can be described thus: Effect of the EGFR inhibitor on the intracellular NO levels, HUVEC. The test is classed as cell-based, human. Conditions: 20 μM, 12-24 hrs, cell lysate. The protocol: as §1
The test system of test [3] is intracellular NO level in hMSC. The experiment in a line: Effect of the EGFR inhibitor on the intracellular NO levels, hMSC. The test is classed as cell-based. The conditions noted are these: hMSCs; 20 μM; 12-24 hrs; cell lysate. As to the method: as §1
The next test relates to skin cells HaCaT. The experiment in a line: Proliferative toxicity of EGFR inhibitor on skin cells HaCaT and ameliorating effect of nitric oxide releasing agents (CCK-8). The test is classed as cell-based. The conditions noted are these: 48 hrs.
Test [4] concerns small intestine epithelial cells FHs 74 Int. The test can be described thus: Proliferative toxicity of EGFR inhibitor to small intestine epithelial cell FHs 74 Int and ameliorating effect of nitric oxide releasing agent (CCK-8). The test is classed as cell-based. Conditions: one merged result for Erlotinib 10 μM, Afatinib 5 μM, Osimertinib 20 μM, agent 200 μM, 48 hrs.
Method: The cultured small intestine epithelial cells FHs 74 Int were digested, counted, and seeded to a 96-well plate with 5000-10000 cells per well. After the cells were attached, the supernatant was discarded. The wells were divided to the blank control group, the EGFR inhibitor group, the EGFR inhibitor+nitric oxide releasing agent group and blank solvent control group.
EGFR inhibitor group: 100 μL of the EGFR inhibitor solution was added (the final concentration was listed in Table 3, all the EGFR inhibitor solution are DMSO solution); the EGFR inhibitor+nitric oxide releasing agent group: the EGFR inhibitor solution and the nitric oxide releasing agent solution were added (the final concentrations of the EGFR inhibitor and the nitric oxide releasing agent were listed in Table 3, and depending on the solubility of the nitric oxide releasing agents, the nitric oxide releasing agent solution was ethanol solution or aqueous solution); the blank control group: except the normal replacement of medium, no additional solution was added; a plurality of blank solvent control group: an equal volume of the same type of solvent as the corresponding EGFR inhibitor group or the EGFR inhibitor+nitric oxide releasing agent group was added. […] After additional 48 hrs of culture, the survival rate of cells was determined by Cell Counting Kit-8 (CCK-8) assay kit (C0037, Shanghai Beyotime Biotechnology Inc., Beyotime Biotechnology), to calculate the proliferative toxicity of the EGFR inhibitor to cells and the ameliorating effect of the nitric oxide releasing agent to the proliferative toxicity. GraphPad Prism 6.0 Software and t-test were used to carry out a statistic analysis of the results and plot a graph.
For test [5], the system named is Human Oral Keratinocytes (HOK). The test can be described thus: Proliferative toxicity of EGFR inhibitor on Human Oral Keratinocytes (HOK) and ameliorating effect of nitric oxide releasing agent (CCK-8). The test is classed as cell-based. Conditions: one merged result for Erlotinib 10 μM, Afatinib 5 μM, Osimertinib 20 μM, agent 200 μM, 48 hrs.
Method: The cultured Human Oral Keratinocytes (HOK) were digested, counted, and seeded to a 96-well plate with 5000-10000 cells per well. After the cells were attached, the supernatant was discarded. The wells were divided to the blank control group, the EGFR inhibitor group, the EGFR inhibitor+nitric oxide releasing agent group and blank solvent control group. EGFR inhibitor group: 100 μL of the EGFR inhibitor solution was added (the final concentration was listed in Table 4, all the EGFR inhibitor solution that are DMSO solution); the EGFR inhibitor+nitric oxide releasing agent group: the EGFR inhibitor solution and the nitric oxide releasing agent solution were added (the final concentrations of the EGFR inhibitor and the nitric oxide releasing agent were listed in Table 4, and depending on the solubility of the nitric oxide releasing agents, the nitric oxide releasing agent solution was ethanol solution or aqueous solution); the blank control group: except the normal replacement of medium, no additional solution was added; a plurality of blank solvent control group: an equal volume of the same type of solvent as the corresponding EGFR inhibitor group or the EGFR inhibitor+nitric oxide releasing agent group was added. […] After additional 48 hrs of culture, the survival rate of cells was determined by Cell Counting Kit-8 (CCK-8) assay kit (C0037, Shanghai Beyotime Biotechnology Inc., Beyotime Biotechnology), to calculate the proliferative toxicity of the EGFR inhibitor to cells and the ameliorating effect of the nitric oxide releasing agent to the proliferative toxicity. GraphPad Prism 6.0 Software and t-test were used to carry out a statistic analysis of the results and plot a graph.
In test [6] the test system is human foreskin fibroblasts (HFF). The test can be described thus: Proliferative toxicity of EGFR inhibitor on HFF and ameliorating effect of nitric oxide releasing agent (CCK-8). It counts as cell-based. Conditions: one merged result for Erlotinib 10 μM, Afatinib 5 μM, Osimertinib 20 μM, agent 200 μM, 48 hrs.
Method: The cultured human foreskin fibroblasts (HFF) were digested, counted, and seeded to a 96-well plate with 5000-10000 cells per well. After the cells were attached, the supernatant was discarded. The wells were divided to the blank control group, the EGFR inhibitor group, the EGFR inhibitor+nitric oxide releasing agent group and blank solvent control group. EGFR inhibitor group: 100 μL of the EGFR inhibitor solution was added (the final concentration was listed in Table 6, the EGFR inhibitor solutionare DMSO solution); the EGFR inhibitor+nitric oxide releasing agent group: the EGFR inhibitor solution and the nitric oxide releasing agent solution were added (the final concentrations of the EGFR inhibitor and the nitric oxide releasing agent were listed in Table 6, and depending on the solubility of the nitric oxide releasing agents, the nitric oxide releasing agent solution was ethanol solution or aqueous solution); the blank control group: except the normal replacement of medium, no additional solution was added; a plurality of blank solvent control group: an equal volume of the same type of solvent as the corresponding EGFR inhibitor group or the EGFR inhibitor+nitric oxide releasing agent group was added. […] After additional 48 hrs of culture, the survival rate of cells was determined by Cell Counting Kit-8 (CCK-8) assay kit (C0037, Shanghai Beyotime Biotechnology Inc., Beyotime Biotechnology), to calculate the proliferative toxicity of the EGFR inhibitor to cells and the ameliorating effect of the nitric oxide releasing agent to the proliferative toxicity. GraphPad Prism 6.0 Software and t-test were used to carry out a statistic analysis of the results and plot a graph.
Test [7] has as its system human umbilical vein endothelial cells (HUVEC). The test can be described thus: Proliferative toxicity of EGFR inhibitor on HUVEC and ameliorating effect of nitric oxide releasing agent (CCK-8). The test is classed as cell-based. Conditions: 48 hrs. As to the method: The cultured human umbilical vein endothelial cells (HUVECs) were digested, counted, and seeded to a 96-well plate with 5000-10000 cells per well. After the cells were attached, the supernatant was discarded. The wells were divided to the blank control group, the EGFR inhibitor group, the EGFR inhibitor+nitric oxide releasing agent group and blank solvent control group.
EGFR inhibitor group: 100 μL of the EGFR inhibitor solution was added (the final concentration was listed in Table 5, the EGFR inhibitor solution are DMSO solution); the EGFR inhibitor+nitric oxide releasing agent group: the EGFR inhibitor solution and the nitric oxide releasing agent solution were added (the final concentrations of the EGFR inhibitor and the nitric oxide releasing agent were listed in Table 5, and depending on the solubility of the nitric oxide releasing agents, the nitric oxide releasing agent solution was ethanol solution or aqueous solution); the blank control group: except the normal replacement of medium, no additional solution was added; a plurality of blank solvent control group: an equal volume of the same type of solvent solution as the corresponding EGFR inhibitor group or the EGFR inhibitor+nitric oxide releasing agent group was added. The blank solvent control group was used for data correction to eliminate the effect of solvent to the result in the EGFR inhibitor group and the EGFR inhibitor+nitric oxide releasing agent group. After additional 48 hrs of culture, the survival rate of cells was determined by Cell Counting Kit-8 (CCK-8) assay kit (C0037, Shanghai Beyotime Biotechnology Inc., Beyotime Biotechnology), to calculate the proliferative toxicity of the EGFR inhibitor to cells and the ameliorating effect of the nitric oxide releasing agent to the proliferative toxicity. GraphPad Prism 6.0 Software and t-test were used to carry out a statistic analysis of the results and plot a graph. […]

The mark [8] stands for this setting: Afatinib 5 μM + nitric oxide releasing agent 200 μM.
Where [9] appears, read: Cetuximab 100-200 μg/mL + nitric oxide releasing agent 200 μM.
Setting [10] is: Erlotinib 10 μM + nitric oxide releasing agent 200 μM.
[11] abbreviates: Osimertinib 20 μM + nitric oxide releasing agent 200 μM.

Method for skin cells HaCaT: The cultured skin cell HaCaT were digested, counted, and seeded in a 96-well plate with 5000-10000 cells per well. After the cells were attached, the supernatant was discarded. The wells were divided to the blank control group, the EGFR inhibitor group, the EGFR inhibitor+nitric oxide releasing agent group and the blank solvent control group. The EGFR inhibitor group: 100 μL of the EGFR inhibitor solution was added (the final concentration was shown in Table 2; Cetuximab was in an aqueous solution, besides which each of other EGFR inhibitors were in a solution containing DMSO); the EGFR inhibitor+nitric oxide releasing agent group: the EGFR inhibitor solution and the nitric oxide releasing agent solution were added (the final concentration of the EGFR inhibitor and nitric oxide releasing agent were shown in Table 2, and depending on the solubility of the nitric oxide releasing agent, the nitric oxide releasing agent solution was an ethanol solution or an aqueous solution); the blank control group: except the normal replacement of the medium, no additional solution was added; a plurality of blank solvent control groups: an equal volume of the same type of solvent as the corresponding EGFR inhibitor group or the EGFR inhibitor+nitric oxide releasing agent was added. […] After additional culture for 48 hrs, the survival rate of cells was measured by Cell Counting Kit-8 (CCK-8) assay kit (C0037, purchased from Shanghai Beyotime Biotechnology Inc.) to calculate the proliferative toxicity of the EGFR inhibitor to cells and the ameliorating effect of the nitric oxide releasing agent to the proliferative toxicity.

As for `C#Cc1cccc(Nc2ncnc3cc(OCCOC)c(OCCOC)cc23)c1` [Erlotinib], the “NO Level: percentage of NO concentration decreased vs control group” value is given as 28% in test [1], 22% in test [2] and 30% in test [3].

On to `CC(C)CCON=O` [Isoamyl nitrite, isoamyl nitrite], for which the “Cell Survival Rate: percentage of viable cells increased vs EGFR inhibitor group” value is reported as “by 35-45%” in the test on skin cells HaCaT (setting [8]); “by 35-45%” in the test with skin cells HaCaT (setting [9]); “by 75-85%” with skin cells HaCaT (setting [10]); “by 35-45%” with skin cells HaCaT (setting [11]); 25%-35% in test [4]; 25-35% in test [5]. The “Cell Survival Rate: percentage of viable cells increased vs EGFR inhibitor group” value in test [6] is given as 30-80%.

With `CCOC(=O)[N-]c1cn(N2CCOCC2)n[o+]1` [Molsidomine], the “Cell Survival Rate: percentage of viable cells increased vs EGFR inhibitor group” value is listed as “by 35-45%” in the test on skin cells HaCaT (setting [8]); “by 75-85%” in the test on skin cells HaCaT (setting [10]); “by 35-45%” in the test on skin cells HaCaT (setting [11]); 15%-35% in test [4]; 20-30% in test [5]; 20-70% in test [6].

Turning to `NCCN(CCN)[N+]([O-])=NO` [NOC-18, 3,3-di (aminoethyl)-1-hydroxyl-2-carbonyl-1-triazene], the “Cell Survival Rate: percentage of viable cells increased vs EGFR inhibitor group” value with skin cells HaCaT (setting [8]) was “by 35-45%”; with skin cells HaCaT (setting [9]), “by 45-55%”; in the test with skin cells HaCaT (setting [10]), “by 75-85%”; in the test on skin cells HaCaT (setting [11]) it was “by 25-35%”.

Take `O=C(NCCO[N+](=O)[O-])c1cccnc1` [Nicorandil, nicorandil]: the “Cell Survival Rate: percentage of viable cells increased vs EGFR inhibitor group” value with skin cells HaCaT (setting [8]) is listed as “by 65-75%”; with skin cells HaCaT (setting [10]) it was “by 85-95%”; in the test with skin cells HaCaT (setting [11]), “by 30-40%”.

As for `O=[N+]([O-])OCC(CO[N+](=O)[O-])O[N+](=O)[O-]` [Nitroglycerin, nitroglycerin], the “Cell Survival Rate: percentage of viable cells increased vs EGFR inhibitor group” value was “by 85-95%” in the test on skin cells HaCaT (setting [8]); “by 55-65%” in the test on skin cells HaCaT (Canertinib 10 μM + nitric oxide releasing agent 200 μM); “by 35-45%” in the test with skin cells HaCaT (setting [9]); “by 65-75%” in the test on skin cells HaCaT (EAI045 20 μM + nitric oxide releasing agent 200 μM); “by 65-75%” with skin cells HaCaT (setting [10]); “by 65-75%” in the test with skin cells HaCaT (Gefitinib 10 μM + nitric oxide releasing agent 200 μM). Further, the “Cell Survival Rate: percentage of viable cells increased vs EGFR inhibitor group” value in the test with skin cells HaCaT (Icotinib 10 μM + nitric oxide releasing agent 200 μM) was “by 65-75%”; in the test on skin cells HaCaT (Lapatinib 10 μM + nitric oxide releasing agent 200 μM) it was “by 55-65%”; in the test with skin cells HaCaT (Nazartinib 10 μM + nitric oxide releasing agent 200 μM), “by 55-65%”; in the test on skin cells HaCaT (Neratinib 10 μM + nitric oxide releasing agent 200 μM) it was “by 65-75%”; in the test with skin cells HaCaT (Olmutinib 10 μM + nitric oxide releasing agent 200 μM), “by 35-45%”; in the test on skin cells HaCaT (setting [11]), “by 35-45%”. For the same compound, the “Cell Survival Rate: percentage of viable cells increased vs EGFR inhibitor group” value is “by 55-65%” in the test on skin cells HaCaT (Poziotinib 10 μM + nitric oxide releasing agent 200 μM); “by 65-75%” in the test on skin cells HaCaT (Rociletinib 10 μM + nitric oxide releasing agent 200 μM); “by 55-65%” in the test with skin cells HaCaT (Sapitinib 10 μM + nitric oxide releasing agent 200 μM); “by 55-65%” in the test with skin cells HaCaT (Vandetanib 10 μM + nitric oxide releasing agent 200 μM); “by 35-45%” in the test on skin cells HaCaT (Varlitinib 10 μM + nitric oxide releasing agent 200 μM); 15%-35% in test [4]. Besides, the “Cell Survival Rate: percentage of viable cells increased vs EGFR inhibitor group” value is reported as 20-30% in test [5]; 15-20% in test [7] (Afatinib 5 μM + agent 200 μM); 20-30% in test [7] (Erlotinib 10 μM + agent 200 μM); 90-100% in test [7] (Osimertinib 20 μM + agent 200 μM); 30-90% in test [6].
